The values that follow come from patent publication US4061741A, “Physiological substances for intensifying the pharmacological effect of drugs” (Firma Servomed Arzei GmbH & Co. Pharma KG, priority 1974, dated 1977).

The subject of one data set is CFI mice. The experiment in a line: analgesic efficacy, writhing test, 60 minutes after oral application (Examples 5 to 8, Tables V to VIII). Particulars: for ED50: Mus musculus, 1 h, 60 mins. The format is in vivo, mouse (CFI). The method, then:
The analgesic efficacy of sodium salicylate, sodium salicylate + choline orotate in the molar ratio of 1:1 and sodium salicylate + choline orotate in the molar ratio of 1:2 was compared in the writhing test on mice and the ED50 determined after 1 hour.
As in Example 5, the ED50 of metamizol and metamizol + choline orotate in the molar ratio of 1:2 was determined after one hour by the writhing test.
The analgesic effects of codeine phosphate and codeine phosphate + choline orotate (molar ratio 1:1) are compared in the writhing test on mice.

A further data set relates to NMRI mice. Description: analgesic efficacy, writhing syndrome, oral (Example 1, Table I). The format is in vivo, mouse (NMRI, female). As for the experimental part:
Dextropropoxyphene-HCl, dextropropolyphenorotate and dextropropoxyphene orotate + orotic acid (in the molar ratio 1:1) were tested on mice to determine their analgesic efficacy after oral administration following the "writhing" syndrome. The ED50 was determined after 15 minutes, 30 minutes, 60 minutes and 180 minutes.
ED50 in […] of mouse (calculated with respect to the
dextropropoxyphene-HCl);
oral application, writhing syndrome, 800 NMRI mice, […]

Data set [1] deals with guinea pigs. The experiment in a line: antitussive efficacy, Turner cough test, citric acid aerosol, oral (Example 2, Table II). The format is in vivo, guinea pig. Particulars: for % cough inhibition: 30 minutes after oral application; for ED50: calculated according to the Gaussian Integral from the values of Table II, 30 minutes; for ED50 / antitussive efficacy (in words): oral; for antitussive efficacy (in words): in the dosages tested, guinea pigs. As for the experimental part: The antitussive efficacy of laevopropoxyphene-HCl and laevopropoxyphene orotate was compared on guinea pigs, using the Turner cough test.
% cough inhibition 30 minutes after oral application.
70 guinea pigs, 250 g; 7.5% citric acid aerosol for 10
minutes in the respired air.
According to the Gaussian Integral, from the values shown in the Table, the ED50 can be calculated for: L-propoxyphene-HCl as being greater than 200 mg/kg of animal, 1-propoxyphene orotate 79 ± 8 mg/kg of animal.

Data set [2] deals with guinea pigs. The experiment in a line: antitussive action, Turner cough test, citric acid aerosol, intravenous (Example 3, Table III). It is filed as in vivo, guinea pig. As for the experimental part: As with Example 2, the two substances laevopropoxyphene-HCl and laevopropoxyphene orotate were tested and compared with respect to their antitussive action. This time, however, intravenous applications were adopted.
% cough inhibition; the figures in brackets represent mg
propoxyphene-HCl in the 1-propoxyphene orotate.
320 guinea pigs (350 g); intravenous application. 7.5%

Data set [3] has as its system guinea pigs. Description: antitussive efficacy, Turner cough test, citric acid aerosol, oral (Example 4, Table IV). The format is in vivo. Particulars: guinea pig, calculated with respect to 1-propoxyphene-HCl. As for the experimental part: The antitussive efficacy of laevopropoxyphene-HCl, laevopropoxyphene orotate, laevopropoxyphene orotate + choline orotate (in the molar ratio 1:1) and of laevopropoxyphene-HCl + choline orotate (in the molar ratio of 1:2) was tested and compared after oral application on guinea pigs using the Turner cough test.
ED50 in mg/kg of guinea pig. Values calculated with respect
280 guinea pigs (350 g); oral application.
7.5% citric acid aerosol.

For the next data set, the system named is blood proteins. Description: drug not bonded to serum protein, ultrafiltration of human serum with and without orotic acid. The format is in vitro ADME. Particulars: in the presence of orotic acid. The method, then:
1 ml of this serum is then ultrafiltered at the same temperature, accompanied by agitation. (Filter permeability up to a molecular weight of approx. 10,000). The radioactivity contained in this ml is measured. The measured value, found […], indicates the percentage of drug which is not bonded to protein. The same test is repeated but in the presence of non-radioactively marked orotic acid in a molar ratio to the marked drug of for example 1:1 or 1:2. The percentage of free drug is calculated similarly as described above. If the second measured value is higher than the first, then this is a measure of improved availability of the drug. This increased availability is confirmed in experiments with animals.

“Also recorded” adds a separate entry of the source. Counter-ions that a name gives are not always drawn.

In the data set with CFI mice (oral, writhing syndrome, CFI mice, female, 20 to 22 g, Table VII), `COc1ccc2c3c1O[C@H]1[C@@H](O)C=C[C@H]4[C@@H](C2)N(C)CC[C@@]341` [Codeine phosphate] came in with an ED50 of 82 mg/kg.
As to `CCC(=O)O[C@](Cc1ccccc1)(c1ccccc1)[C@H](C)CN(C)C` [Dextropropoxyphene orotate], the “analgesic efficacy (in words)” value with NMRI mice was “substantially more intensely effective as an analgesic than dextropropoxyphene-HCl by itself”.
Turning to `CCC(=O)O[C@@](Cc1ccccc1)(c1ccccc1)[C@@H](C)CN(C)C` [Laevopropoxyphene orotate], the “% cough inhibition” value with guinea pigs [1] (25 mg/kg) was found to be 6%; with guinea pigs [1] (50 mg/kg), 31%; in the data set with guinea pigs [1] (75 mg/kg) it was 47%; in the data set on guinea pigs [1] (100 mg/kg), 56%; with guinea pigs [2] (1 (0.758) mg/kg, 5 min., bracket = mg propoxyphene-HCl), 17.5%; in the data set with guinea pigs [2] (1 (0.758) mg/kg, 10 min.), 24%. In addition, the “% cough inhibition” value is recorded as 30% with guinea pigs [2] (1 (0.758) mg/kg, 15 min.); 23% in the data set with guinea pigs [2] (1 (0.758) mg/kg, 20 min.); 31.0% with guinea pigs [2] (3 (2.27) mg/kg, 5 min.); 30% in the data set on guinea pigs [2] (3 (2.27) mg/kg, 10 min.); 36% in the data set with guinea pigs [2] (3 (2.27) mg/kg, 15 min.); 47% with guinea pigs [2] (3 (2.27) mg/kg, 20 min.). Also, the “% cough inhibition” value with guinea pigs [2] (5 (3.79) mg/kg, 5 min.) worked out at 40.5%; in the data set with guinea pigs [2] (5 (3.79) mg/kg, 10 min.), 48%; in the data set on guinea pigs [2] (5 (3.79) mg/kg, 15 min.), 53%; in the data set with guinea pigs [2] (5 (3.79) mg/kg, 20 min.), 59%; in the data set with guinea pigs [2] (7.5 (5.69) mg/kg, 5 min.), 52.0%; in the data set on guinea pigs [2] (7.5 (5.69) mg/kg, 10 min.), 59%. Moreover, the “% cough inhibition” value in the data set on guinea pigs [2] (7.5 (5.69) mg/kg, 15 min.) was determined as 63%; with guinea pigs [2] (7.5 (5.69) mg/kg, 20 min.), 62%. Moreover, the ED50 is given as 79 ± 8 mg/kg of animal in the data set with guinea pigs [1] (listed as 1-propoxyphene orotate); 103 mg/kg with guinea pigs [3] (1 hr., listed as Laevopropoxyphene crotate, 60 min); 68 mg/kg in the data set with guinea pigs [3] (3 hr., listed as Laevopropoxyphene crotate, 180 min). For the same compound, the results for the “antitussive efficacy (in words)” value with guinea pigs [1] and with guinea pigs [2] (guinea pigs) were “outstanding antitussive efficacy” and “superior efficacy”, respectively.
For the compound `CCC(=O)O[C@@](Cc1ccccc1)(c1ccccc1)[C@@H](C)CN(C)C` [Laevopropoxyphene-HCl], the “% cough inhibition” value was found to be 0% in the data set with guinea pigs [1] (25 mg/kg); 8% in the data set on guinea pigs [1] (50 mg/kg); 0% with guinea pigs [1] (75 mg/kg); 11% in the data set on guinea pigs [1] (100 mg/kg); 0% in the data set on guinea pigs [1] (150 mg/kg); 9% in the data set on guinea pigs [1] (200 mg/kg). The “% cough inhibition” value in the data set with guinea pigs [2] (2 mg/kg, 5 min.) is listed as 11%; in the data set with guinea pigs [2] (2 mg/kg, 10 min.) it was 0%; in the data set with guinea pigs [2] (2 mg/kg, 15 min.) it was 0%; in the data set with guinea pigs [2] (5 mg/kg, 5 min.), 24%; in the data set on guinea pigs [2] (5 mg/kg, 10 min.), 0%; with guinea pigs [2] (5 mg/kg, 15 min.), 0%. The ED50 result in the data set on guinea pigs [1] (listed as L-propoxyphene-HCl) is reported as “greater than 200 mg/kg of animal”; with guinea pigs [3] (1 hr., listed as Laevorpopoxyphene-HCl, 60 min), 250 mg/kg; in the data set with guinea pigs [3] (3 hr., listed as Laevorpopoxyphene-HCl, 180 min), 195 mg/kg. The “antitussive efficacy (in words)” value with guinea pigs [1] was “no antitussive efficacy”. Moreover, the “toxicity remark in the cough inhibition table” value with guinea pigs [2] (7.5 mg/kg) is “subtoxic”.
The compound `Cc1c(N(C)CS(=O)(=O)O)c(=O)n(-c2ccccc2)n1C` [Metamizol] registered an ED50 in the data set with CFI mice (oral, writhing test, CFI mice (18 to 20 g), Table VI) of 380 mg/kg. Further, the “analgesic efficacy on addition of an orotic acid salt (in words)” value in the data set on CFI mice (metamizol, writhing test, mice, oral) is reported as “reinforcement of the analgesic efficacy”.
In the data set with CFI mice (oral, writhing syndrome, CFI mice, female, 20 to 22 g, Table VIII), `CCCCC1C(=O)N(c2ccccc2)N(c2ccccc2)C1=O` [Phenyl butazone] had an ED50 of 130 ± 45 mg/kg. In addition, the “analgesia in animal experiments (in words)” value in the data set on CFI mice (in the presence of orotic acid) is “no reinforced analgesia; also recorded: no reinforced pharmacological action”. For the same compound, the “amount of drug in the ultrafiltrate (in words)” value in the data set on blood proteins is recorded as “not found in increased quantity in the ultrafiltrate; also recorded: no more drug is found”.
In the data set with CFI mice (oral, writhing test, CFI mice (18 - 20 g), Table V), `O=C([O-])c1ccccc1O.[Na+]` [Sodium salicylate] showed an ED50 of 580 mg/kg.
